The results in this text go back to PMC3724358 (The journal of physical chemistry. B, 2011).

Changes are numbered by the printed parent chain. pKd: −log10 of the molar value.

Assay [1] deals with T1, Ht cyt c552 (Hydrogenobacter thermophilus cytochrome c552) (Hydrogenobacter thermophilus, UniProt P15452, M77A).
T1 sequence (P15452 19-98 M77A): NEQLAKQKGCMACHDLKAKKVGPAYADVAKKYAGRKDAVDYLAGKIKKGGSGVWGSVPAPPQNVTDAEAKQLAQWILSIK
The assay is described as follows: protein film voltammetry titration, pyrolytic graphite edge electrode. It is filed as binding.

The target of assay [2] is T2, Ht cyt c552 (Hydrogenobacter thermophilus cytochrome c552) (Hydrogenobacter thermophilus, UniProt P15452).
T2 sequence (P15452 19-98): T1 sequence (P15452 19-98 M77A) with A59M
The description is as above. It counts as binding.

For `c1c[nH]cn1` [Im, imidazole], the pKd in assay [1] is 3.12; in assay [2], 2.62.
